{"source": "patent US20200385396A1", "about": "“Compond for treatment or prevention of obesity or diseases related to obesity, and application thereof” (SHANGHAI INSTITUTES FOR BIOLOGICAL SCIENCES, CHINESE …, priority 2017, published 2020)", "key": {"normal mice": {"system": "normal mice", "test": "Food intake of mice after single intraperitoneal injection", "format": "in vivo, mouse", "experimental": "(§1) Mice were intraperitoneally injected with DMSO or HLY72 (dissolved in DMSO) 25 μL within 2 hours before turning off the lamp. During the intragastric experiment, the high concentration of HLY72 dissolved in DMSO was dissolved in 10% cyclodextrin, and the total volume was 100 μL Volume by gavage, so that the final concentration of DMSO was less than 10%. The diet was weighed at the 3rd hour, the 6th hour, the 12th hour, and the 24th hour respectively after the lights out. The corresponding mouse body weight was also weighed at the same time before the daily administration. The fat content of mice was measured with the magnetic resonance fat content measuring instrument of the animal platform in SIBCB.\nThe next question we are very concerned about is whether HLY78 has similar functions to NUCB2 protein in mice. Up to now, the most classic function reported for NUCB2 protein is to reduce the food intake of mice at night. Therefore, the experiment was designed: 20 mg/kg of HLY78 was injected intraperitoneally within two hours before turning off the lights at night, and then the food intake of the mice was measured at different time points (0-3 h, 0-6 h, 0-12 h, 0-24 h). […] During the three days of the adaptive injection period before HLY78 injection, both groups of mice were injected with DMSO. On the day of injection of HLY78 and the two days before the injection of DMSO, the body weight of the two groups of mice is also the same (FIG. 2b).\nNext, two small molecules HLY72 and HLY103 were selected to perform functional experiments on the food intake in mice."}, "OB/OB obese model mice": {"system": "OB/OB obese model mice", "test": "Weight loss in OB/OB obese model mice", "format": "in vivo, mouse", "description": "All animal experiments were approved by the Animal Management Committee of SIBCB. C57BL/6 mice were purchased from Lingchang company (normal mice and high-fat diet-induced obese mice), C57/BLJ6 (NUCB2 gene knockout mice for breeding and background purification) were purchased from Lingchang company, OB/OB mice were purchased from Slack company. A high-fat diet (45% kcal, D12451) for inducing obese mice was purchased from Research Diets. Starting from the sixth week, it was fed with high-fat diet for 14-25 weeks. The rest of the mice used normal diet (13.5% kcal). The mice were housed in the SPF grade animal house of SIBCB. The lights were turned off for 12 hours (19: 00-07: 00), and the lights were turned on for 12 hours (07: 00-19: 00).\nas §1\nAfter obtaining the above results, we now begin to use the small molecule HLY72 in obese mouse models. We first chose the obese mouse model (OB/OB) caused by Leptin mutation. An important reason for the persistence of obesity is the resistance and tolerance to regulatory factors such as Insulin and Leptin. And we are very pleased with the fact that NUCB2 can reduce the food intake of Leptin receptor mutant Zucker rats. In this regard, we can reasonably speculate that the small molecule HLY72 should also have an effect on OB/OB mice. Sure enough, the injection of HLY72 has a significant weight loss effect on OB/OB mice."}, "mice": {"system": "mice", "test": "Water consumption of mice", "format": "in vivo, mouse", "conditions": "20 mg/kg injection, three consecutive days", "experimental": "Since OB/OB mice are a diabetic mouse model, they have the characteristics of polyphagia, polydipsia, and polyuria. […] Again whether HLY72 had the effect of reducing drinking water in mice was tested. […] For the mice of high-fat diet (HFD), the three-day water consumption is only 26.38%±2.06% of the control group (FIG. 9). Therefore, HLY72, like NUCB2/Nesfatin-1, has the effect of reducing water consumption in mice."}, "[1]": {"system": "mice fed with high-fat diet", "test": "Paired feeding experiment in metabolic cage", "format": "in vivo, mouse", "conditions": "20 mg/kg", "experimental": "Mice fed with high-fat diet (8 mice per group) are placed in a metabolic cage for 3 days and injected with 20 mg/kg of HLY72 or DMSO once a day. Half of the mice in the DMSO group are paired with the HLY72 group. The average daily food intake (A), energy dissipation (B), respiratory exchange rate (C), physical activity (D) (E) of the three groups of mice after the three-day metabolic cage experiment is completed, the weight of the three groups of mice.\nBefore starting the metabolic cage experiment, the mice were fed in a single cage for 1 week. After a one-week single cage adaptation period, three days before the start of the small molecule compound injection, the mice were injected with 25 μL of DMSO within 2 hours before turning off the lights every afternoon, allowing them to adapt to the injection for 3 days. After 3 days of injection, the acclimated mice were put into the metabolic cage. Starting from the same day, 25 μL of DMSO and HLY72 (20 mg/kg) were injected within 2 hours before turning off the lights for 3 consecutive days.\nNext, the HLY72 injection group and their paired feeding group are compared. The DMSO-injected mice were divided into two groups. The first group was free to get enough food, while the other group was provided the same amount of food as the HLY72 group daily. […] Compared with the DMSO group, the energy expenditure of the HLY72 group and its paired feeding group are decreased day and night. There is no difference in energy expenditure between the HLY72 group and its paired feeding group during the day and night (FIG. 14b)."}, "Water solubility": {"test": "Water solubility", "format": "physicochemical"}, "[2]": {"conditions": "OB/OB mice, 20 mg/kg injection, 7 consecutive days"}}, "data": [{"compound": "C=Cc1cccc2c1N(C)Cc1cc3c(cc1-2)OCO3", "note": "[HLY72]", "values": [{"measurement": "food intake of mice", "setting": "normal mice; 7.5 mg/kg", "result": "no significant effect"}, {"measurement": "food intake of mice", "setting": "normal mice; 15 mg/kg", "result": "significant gradient effect"}, {"measurement": "food intake of mice", "setting": "normal mice; 30 mg/kg", "result": "significant gradient effect"}, {"measurement": "urine of mice", "setting": "OB/OB obese model mice; OB/OB mice injected with HLY72", "result": "significantly reduced"}, {"measurement": "daily food intake compared with the DMSO group", "setting": "OB/OB obese model mice; OB/OB mice, 20 mg/kg injection", "result": "significantly reduced"}, {"measurement": "body weight after treatment", "setting": "OB/OB obese model mice; [2]", "result": "37.73 ± 0.87", "unit": "g"}, {"measurement": "reduction in total body weight", "setting": "OB/OB obese model mice; [2]", "result": "10.15%±0.87%"}, {"measurement": "body weight before treatment", "setting": "OB/OB obese model mice; OB/OB mice, 20 mg/kg injection, start", "result": "42.02 ± 1.01", "unit": "g"}, {"measurement": "three-day water consumption of treated mice, percent of control group", "setting": "mice; high-fat diet (HFD) mice", "result": "26.38%±2.06%"}, {"measurement": "three-day water consumption of treated mice, percent of control group", "setting": "mice; normal chow diet (NCD) mice", "result": "39.68%±2.29%"}, {"measurement": "body weight, difference to paired feeding group", "setting": "[1]", "result": "no significant difference"}, {"measurement": "physical activity compared with the DMSO group and the paired feeding group", "setting": "[1]", "result": "significantly reduced"}, {"measurement": "body weight", "setting": "[1]; after three-day metabolic cage", "result": "decreased significantly"}, {"measurement": "energy expenditure compared with the DMSO group", "setting": "[1]; day and night", "result": "decreased"}, {"measurement": "energy expenditure, difference to paired feeding group", "setting": "[1]; day and night", "result": "no difference"}, {"measurement": "respiratory exchange rates compared with the paired feeding group and the DMSO group", "setting": "[1]; night and day", "result": "significantly reduced"}, {"measurement": "water solubility", "setting": "Water solubility", "result": "very poor"}]}]}
